Assay results taken from ChEMBL document CHEMBL4138175, “Newly designed organotin(IV) carboxylates with peptide linkage: Synthesis, structural elucidation, physicochemical characterizations and pharmacological investigations” (Eur J Med Chem, 2018).
≈ marks a conversion by molar mass, not a printed value. Calls of active or inactive are those of the source. No cut-off for these calls is given here.

Assays:
BHK-21 [1] = test: Cytotoxicity against golden hamster BHK21 cells at 0.1 uM after 48 hrs by sulforhodamine B assay; assay type: cell-based, Mesocricetus auratus; settings: bhk-21, 48 h
NCI-H157 [2] = test: Cytotoxicity against human NCI-H157 cells at 0.1 uM after 48 hrs by sulforhodamine B assay; assay type: functional
NCI-H157 [3] = test: Cytotoxicity against human NCI-H157 cells at 1 uM after 48 hrs by sulforhodamine B assay; assay type: functional
BHK-21 [4] = test: Cytotoxicity against golden hamsterBHK21 cells at 10 uM after 48 hrs by sulforhodamine B assay; assay type: cell-based, Mesocricetus auratus; settings: hamster, bhk-21, 48 h
HepG2 = test: Cytotoxicity against human HepG2 cells by MTT assay; assay type: functional, cell-based
NCI-H157 [5] = test: Cytotoxicity against human NCI-H157 cells at 10 uM after 48 hrs by sulforhodamine B assay; assay type: functional
NCI-H157 [6] = test: Cytotoxicity against human NCI-H157 cells at 100 uM after 48 hrs by sulforhodamine B assay; assay type: functional
BHK-21 [7] = test: Cytotoxicity against golden hamster BHK21 cells at 1 uM after 48 hrs by sulforhodamine B assay; assay type: cell-based, Mesocricetus auratus; settings: bhk-21, 48 h
NCI-H157 [8] = test: Cytotoxicity against human NCI-H157 cells after 48 hrs by sulforhodamine B assay; assay type: functional, cell-based
BHK-21 [9] = test: Cytotoxicity against golden hamster BHK21 cells after 48 hrs by sulforhodamine B assay; assay type: cell-based, Mesocricetus auratus; settings: bhk-21, 48 h
BHK-21 [10] = test: Cytotoxicity against golden hamster BHK21 cells at 100 uM after 48 hrs by sulforhodamine B assay; assay type: cell-based, Mesocricetus auratus; settings: bhk-21, 48 h
[11] = test system: Agrobacterium tumefaciens; test: Antitumor activity against Agrobacterium tumefaciens-induced tumor after 21 days by potato disc bioassay technique; assay type: functional
Leishmania major [12] = test: Antileishmanial activity against Leishmania major promastigotes at 100 uM after 72 hrs by MTT assay relative to control; assay type: functional
Klebsiella pneumoniae [13] = test: Antibacterial activity against Klebsiella pneumoniae assessed as zone of inhibition after 24 to 48 hrs by well diffusion method; assay type: functional
Serratia marcescens [14] = test: Antibacterial activity against Serratia marcescens assessed as zone of inhibition by measuring activity index after 24 to 48 hrs by well diffusion method relative to ampicillin; assay type: functional
Escherichia coli [15] = test: Antibacterial activity against Escherichia coli assessed as zone of inhibition after 24 to 48 hrs by well diffusion method; assay type: functional
Leishmania major [16] = test: Antileishmanial activity against Leishmania major promastigotes at 1 uM after 72 hrs by MTT assay relative to control; assay type: functional
Staphylococcus aureus [17] = test: Antibacterial activity against Staphylococcus aureus assessed as zone of inhibition by measuring activity index after 24 to 48 hrs by well diffusion method relative to amoxicillin; assay type: functional, organism-based
Staphylococcus aureus [18] = test: Antibacterial activity against Staphylococcus aureus assessed as zone of inhibition by measuring activity index after 24 to 48 hrs by well diffusion method relative to penicillin G; assay type: functional, organism-based
Staphylococcus aureus [19] = test: Antibacterial activity against Staphylococcus aureus assessed as zone of inhibition by measuring activity index after 24 to 48 hrs by well diffusion method relative to tetracycline; assay type: functional, organism-based
Streptococcus pyogenes [20] = test: Antibacterial activity against Streptococcus pyogenes assessed as zone of inhibition by measuring activity index after 24 to 48 hrs by well diffusion method relative to penicillin G; assay type: functional, organism-based
Pseudomonas aeruginosa [21] = test: Antibacterial activity against Pseudomonas aeruginosa assessed as zone of inhibition after 24 to 48 hrs by well diffusion method; assay type: functional
Leishmania major [22] = test: Antileishmanial activity against Leishmania major promastigotes at 10 uM after 72 hrs by MTT assay relative to control; assay type: functional
Streptococcus pyogenes [23] = test: Antibacterial activity against Streptococcus pyogenes assessed as zone of inhibition by measuring activity index after 24 to 48 hrs by well diffusion method relative to ampicillin; assay type: functional, organism-based
Serratia marcescens [24] = test: Antibacterial activity against Serratia marcescens assessed as zone of inhibition by measuring activity index after 24 to 48 hrs by well diffusion method relative to amoxicillin; assay type: functional
Staphylococcus aureus [25] = test: Antibacterial activity against Staphylococcus aureus assessed as zone of inhibition by measuring activity index after 24 to 48 hrs by well diffusion method relative to ampicillin; assay type: functional, organism-based
Staphylococcus aureus [26] = test: Antibacterial activity against Staphylococcus aureus assessed as zone of inhibition after 24 to 48 hrs by well diffusion method; assay type: functional
Pseudomonas aeruginosa [27] = test: Antibacterial activity against Pseudomonas aeruginosa assessed as zone of inhibition by measuring activity index after 24 to 48 hrs by well diffusion method relative to ampicillin; assay type: functional, organism-based
Streptococcus pyogenes [28] = test: Antibacterial activity against Streptococcus pyogenes assessed as zone of inhibition after 24 to 48 hrs by well diffusion method; assay type: functional
Escherichia coli [29] = test: Antibacterial activity against Escherichia coli assessed as zone of inhibition by measuring activity index after 24 to 48 hrs by well diffusion method relative to tetracycline; assay type: functional
Serratia marcescens [30] = test: Antibacterial activity against Serratia marcescens assessed as zone of inhibition by measuring activity index after 24 to 48 hrs by well diffusion method relative to penicillin G; assay type: functional
[31] = test system: Staphylococcus epidermidis; test: Antibacterial activity against Staphylococcus epidermidis assessed as zone of inhibition by measuring activity index after 24 to 48 hrs by well diffusion method relative to penicillin G; assay type: functional, organism-based
[32] = test system: Staphylococcus epidermidis; test: Antibacterial activity against Staphylococcus epidermidis assessed as zone of inhibition after 24 to 48 hrs by well diffusion method; assay type: functional
Klebsiella pneumoniae [33] = test: Antibacterial activity against Klebsiella pneumoniae assessed as zone of inhibition by measuring activity index after 24 to 48 hrs by well diffusion method relative to penicillin G; assay type: functional, organism-based
Leishmania major [34] = test: Antileishmanial activity against Leishmania major promastigotes at 0.1 uM after 72 hrs by MTT assay relative to control; assay type: functional
Streptococcus pyogenes [35] = test: Antibacterial activity against Streptococcus pyogenes assessed as zone of inhibition by measuring activity index after 24 to 48 hrs by well diffusion method relative to tetracycline; assay type: functional, organism-based
[36] = test system: Staphylococcus epidermidis; test: Antibacterial activity against Staphylococcus epidermidis assessed as zone of inhibition by measuring activity index after 24 to 48 hrs by well diffusion method relative to ampicillin; assay type: functional, organism-based
Streptococcus pyogenes [37] = test: Antibacterial activity against Streptococcus pyogenes assessed as zone of inhibition by measuring activity index after 24 to 48 hrs by well diffusion method relative to amoxicillin; assay type: functional, organism-based
Serratia marcescens [38] = test: Antibacterial activity against Serratia marcescens assessed as zone of inhibition after 24 to 48 hrs by well diffusion method; assay type: functional

Compound CC[C@]1(O)C[C@H]2CN(CCc3c([nH]c4ccccc34)[C@@](C(=O)OC)(c3cc4c(cc3OC)N(C=O)[C@H]3[C@@](O)(C(=O)OC)[C@H](OC(C)=O)[C@]5(CC)C=CCN6CC[C@]43[C@@H]65)C2)C1 [VINCRISTINE] has an Activity (BHK-21 [1]) of 69.8%, an Activity (NCI-H157 [2]) of 69.8% and an Activity (NCI-H157 [3]) of 70.9%. For the same compound, the Activity (BHK-21 [4]) was 72.6%, the IC50 (HepG2) was 0.042 µg/mL (≈ 0.0509 µM) and the Activity (NCI-H157 [5]) was 72.6%. For the same compound, the Activity (NCI-H157 [6]) was 74.5%, the Activity (BHK-21 [7]) was 70.9% and the Activity (NCI-H157 [8]) was “Dose-dependent effect”. The Activity (BHK-21 [9]) was “Dose-dependent effect”, the Activity (BHK-21 [10]) was 74.5% and the Activity [11] was 100%.
COc1ccc(NC(=O)c2ccccc2C(=O)[O-])c([N+](=O)[O-])c1.[Na+] was tested, and the Activity (Leishmania major [12]) was 49.5%, the Activity (BHK-21 [1]) was 40.5% and the “inhibition zone (IZ)” value (Klebsiella pneumoniae [13]) was “inactive”. For the same compound, the Activity_index (Serratia marcescens [14]) was 0.92, the Activity (NCI-H157 [2]) was 25.1% and the “inhibition zone (IZ)” value (Escherichia coli [15]) was 5 mm. The Activity (Leishmania major [16]) was 40.2%, the Activity_index (Staphylococcus aureus [17]) was “inactive” and the Activity_index (Staphylococcus aureus [18]) was “inactive”. For the same compound, the Activity (NCI-H157 [3]) was 35.2%, the Activity (BHK-21 [4]) was 48.9% and the Activity_index (Staphylococcus aureus [19]) was “inactive”. The Activity_index (Streptococcus pyogenes [20]) was “inactive”, the Activity (NCI-H157 [5]) was 50.3% and the “inhibition zone (IZ)” value (Pseudomonas aeruginosa [21]) was “inactive”. For the same compound, the Activity (Leishmania major [22]) was 46.3%, the Activity_index (Streptococcus pyogenes [23]) was “inactive” and the Activity_index (Serratia marcescens [24]) was 1.22. The Activity_index (Staphylococcus aureus [25]) was “inactive”, the “inhibition zone (IZ)” value (Staphylococcus aureus [26]) was “inactive” and the Activity_index (Pseudomonas aeruginosa [27]) was “inactive”. The Activity (NCI-H157 [6]) was 52.2%, the “inhibition zone (IZ)” value (Streptococcus pyogenes [28]) was “inactive” and the Activity (BHK-21 [7]) was 44.2%. For the same compound, the Activity (NCI-H157 [8]) was “Dose-dependent effect”, the Activity_index (Escherichia coli [29]) was 2.5 and the Activity_index (Serratia marcescens [30]) was 0.92. For the same compound, the Activity_index [31] was “inactive”, the “inhibition zone (IZ)” value [32] was “inactive” and the Activity_index (Klebsiella pneumoniae [33]) was “inactive”. The Activity (Leishmania major [34]) was 38.4%, the Activity_index (Streptococcus pyogenes [35]) was “inactive” and the Activity (BHK-21 [9]) was “Dose-dependent effect”. The Activity_index [36] was “inactive”, the Activity (BHK-21 [10]) was 53.5% and the Activity_index (Streptococcus pyogenes [37]) was “inactive”. The “inhibition zone (IZ)” value (Serratia marcescens [38]) was 7.33 mm.
